Values after ≈ are worked out from the molar mass of the structure shown. Each block holds one molecule with its values, some of them ahead of it.
Tests used:
[1] = molecular target: T1, Bifunctional methylenetetrahydrofolate dehydrogenase/cyclohydrolase, mitochondrial (Homo sapiens, UniProt P13995); test: Inhibition of recombinant MTHFD2 (unknown origin) using THF as substrate incubated for 30 mins in presence of NAD
T1 sequence (P13995 whole entry): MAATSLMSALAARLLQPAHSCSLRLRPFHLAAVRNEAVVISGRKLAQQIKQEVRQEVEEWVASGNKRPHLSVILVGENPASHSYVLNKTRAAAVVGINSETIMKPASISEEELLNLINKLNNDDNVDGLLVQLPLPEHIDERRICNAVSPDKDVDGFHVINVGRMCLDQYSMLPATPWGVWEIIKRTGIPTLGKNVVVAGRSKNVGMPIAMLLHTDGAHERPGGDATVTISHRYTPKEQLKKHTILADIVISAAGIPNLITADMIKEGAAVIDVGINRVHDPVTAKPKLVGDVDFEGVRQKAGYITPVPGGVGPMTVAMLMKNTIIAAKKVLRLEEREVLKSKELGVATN

[2] = molecular target: T2, C-1-tetrahydrofolate synthase, cytoplasmic (Homo sapiens, UniProt P11586)
T2 sequence (P11586 whole entry): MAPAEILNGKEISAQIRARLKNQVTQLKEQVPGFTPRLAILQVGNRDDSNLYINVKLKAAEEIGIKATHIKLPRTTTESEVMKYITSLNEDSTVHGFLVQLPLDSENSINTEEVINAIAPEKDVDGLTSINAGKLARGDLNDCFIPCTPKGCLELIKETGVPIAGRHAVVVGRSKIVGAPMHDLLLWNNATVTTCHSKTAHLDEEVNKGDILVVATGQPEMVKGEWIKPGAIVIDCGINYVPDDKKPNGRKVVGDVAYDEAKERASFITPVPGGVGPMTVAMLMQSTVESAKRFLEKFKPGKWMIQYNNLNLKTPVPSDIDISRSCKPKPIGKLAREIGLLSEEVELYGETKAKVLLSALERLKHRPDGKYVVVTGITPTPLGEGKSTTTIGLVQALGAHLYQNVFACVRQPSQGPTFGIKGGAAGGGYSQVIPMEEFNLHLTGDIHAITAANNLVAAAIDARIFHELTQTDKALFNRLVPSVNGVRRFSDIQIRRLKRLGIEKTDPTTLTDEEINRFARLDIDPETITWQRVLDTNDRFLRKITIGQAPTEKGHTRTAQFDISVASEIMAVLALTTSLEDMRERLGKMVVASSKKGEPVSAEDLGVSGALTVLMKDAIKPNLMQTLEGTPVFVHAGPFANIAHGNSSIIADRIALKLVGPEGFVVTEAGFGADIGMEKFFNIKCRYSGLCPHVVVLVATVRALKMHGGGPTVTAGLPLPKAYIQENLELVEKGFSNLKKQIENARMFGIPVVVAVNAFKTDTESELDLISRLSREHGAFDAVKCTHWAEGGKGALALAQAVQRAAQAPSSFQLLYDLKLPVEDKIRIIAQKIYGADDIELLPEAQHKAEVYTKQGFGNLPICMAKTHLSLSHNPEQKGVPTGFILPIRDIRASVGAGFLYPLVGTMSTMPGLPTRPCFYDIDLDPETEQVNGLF
Description: Inhibition of recombinant MTHFD1 (unknown origin) using THF as substrate incubated for 30 mins in presence of NAD

[3] = AUC in BALBc mouse at 300 mg/kg, po measured for 24 hrs by LC-MS/MS analysis; type: ADME, organism-based; conditions: in vivo
[4] = Cmax in BALBc mouse at 30 mg/kg, po measured for 24 hrs by LC-MS/MS analysis; type: ADME, organism-based; design: dose 30 mg/kg, route oral; conditions: in vivo
[5] = Effective permeability of compound at pH 7.4 by PAMPA; type: ADME; conditions: read-out: Peff
[6] = Solubility of compound in pH 6.8; type: physicochemical; conditions: buffer
[7] = Metabolic stability in mouse liver microsomes assessed as remaining parent compound at 1 uM after 0.5 hrs; type: ADME, Microsome; conditions: read-out: Stability
[8] = AUC in BALBc mouse at 30 mg/kg, po measured for 24 hrs by LC-MS/MS analysis; type: ADME, organism-based; conditions: in vivo
[9] = Lipophilicity, logD of compound; type: physicochemical; conditions: octanol/water
[10] = species: Homo sapiens
Description: Antitumor activity against human MDA-MB-231-Luc cells xenografted in orally dosed BALB/cAJcl nu/nu mouse assessed as tumour growth inhibition administered bid for 11 days and measured every 2 to 3 days relative to control

[11] = Toxicity in BALB/cAJcl nu/nu mouse xenografted with human MDA-MB-231-Luc cells assessed as body weight loss at 30 to 300 mg/kg, po administered bid for 11 days and measured every 1 to 2 days; type: organism-based; conditions: in vivo
[12] = AUC in BALBc mouse at 10 mg/kg, po measured for 24 hrs by LC-MS/MS analysis; type: ADME, organism-based; conditions: in vivo
[13] = Effective permeability of compound at pH 5 by PAMPA; type: ADME; conditions: read-out: Peff
[14] = Fraction unbound in mouse plasma; type: ADME, cell-free
[15] = Cmax in BALBc mouse at 300 mg/kg, po measured for 24 hrs by LC-MS/MS analysis; type: ADME, organism-based; design: dose 300 mg/kg, route oral; conditions: in vivo
[16] = Antitumor activity against human MDA-MB-231-Luc cells xenografted in BALB/cAJcl nu/nu mouse assessed as tumour growth inhibition at 300 mg/kg, po administered bid for 11 days and measured every 2 to 3 days relative to control; type: functional; conditions: read-out: TGI
[17] = Half life in BALBc mouse at 300 mg/kg, po measured for 24 hrs by LC-MS/MS analysis; type: ADME, organism-based; conditions: in vivo
[18] = Half life in BALBc mouse at 30 mg/kg, po measured for 24 hrs by LC-MS/MS analysis; type: ADME, organism-based; conditions: in vivo
[19] = Solubility of compound in pH 1.2; type: physicochemical; conditions: buffer
[20] = Cmax in BALBc mouse at 100 mg/kg, po measured for 24 hrs by LC-MS/MS analysis; type: ADME, organism-based; design: dose 100 mg/kg, route oral; conditions: in vivo
[21] = Cmax in BALBc mouse at 10 mg/kg, po measured for 24 hrs by LC-MS/MS analysis; type: ADME, organism-based; design: dose 10 mg/kg, route oral; conditions: in vivo
[22] = Antiproliferative activity against human MDA-MB-231-luc-D3H2LN cells assessed as inhibition of growth after 3 days by CellTiter Glo assay; type: functional; conditions: 72 h
[23] = Half life in BALBc mouse at 100 mg/kg, po measured for 24 hrs by LC-MS/MS analysis; type: ADME, organism-based; conditions: in vivo
[24] = Lipophilicity, logP of compound; type: physicochemical; conditions: octanol/water
[25] = Free plasma concentration in BALBc mouse at 10 to 300 mg/kg, po measured after 24 hrs by LC-MS/MS analysis; type: ADME, organism-based; conditions: in vivo
[26] = Half life in BALBc mouse at 10 mg/kg, po measured for 24 hrs by LC-MS/MS analysis; type: ADME, organism-based; conditions: in vivo
[27] = AUC in BALBc mouse at 100 mg/kg, po measured for 24 hrs by LC-MS/MS analysis; type: ADME, organism-based; conditions: in vivo
[28] = Dissociation constant, acidic pKa of compound; type: physicochemical

SMILES: Cc1c(N2CCN(C)[C@@H](C)C2)ccc2c3c(c(=O)oc12)CN(C(=O)c1ccc(NS(C)(=O)=O)c(OC(F)(F)F)c1)CC3
AUC at 24 h [3]: 1630 µg·h/mL | Cmax [4]: 56.5 µg/mL | Papp [5]: > 50 ×10⁻⁶ cm/s | solubility [6]: 630 µg/mL (≈ 1040 µM) | remaining at 0.5 h, 1 µM [7]: 66% | AUC at 24 h [8]: 264 µg·h/mL | logD [9]: 1.9 | TGI [10]: Dose-dependent effect | Activity [11]: Non-Toxic | AUC at 24 h [12]: 64.4 µg·h/mL | Papp [13]: 17.2 ×10⁻⁶ cm/s | fraction unbound [14]: 0.031 | Cmax [15]: 143 µg/mL | inhibition in vivo at 300 mg/kg [16]: 67% | half-life [17]: 4 h | half-life [18]: 2.16 h | solubility [19]: 1100 µg/mL (≈ 1810 µM) | Cmax [20]: 90.1 µg/mL | Cmax [21]: 11.4 µg/mL | GI50 [22]: 340 nM | half-life [23]: 2.32 h | logP [24]: 2.1 | Cp(f) [25]: 0 ng/mL | half-life [26]: 2.21 h | AUC at 24 h [27]: 726 µg·h/mL

SMILES: Cc1cc(C(=O)N2CCc3c(c(=O)oc4c(C)c(N5CCN(C)CC5)ccc34)C2)ccc1NS(C)(=O)=O
pKa [28]: 8.3 | IC50 [1]: 530 nM | Papp [5]: 23.1 ×10⁻⁶ cm/s | IC50 [2]: > 30000 nM | GI50 [22]: 7700 nM | logP [24]: 1.8

SMILES: Cc1c(N2CCN(C)[C@@H](C)C2)ccc2c3c(c(=O)oc12)CN(C(=O)c1ccc(NS(C)(=O)=O)c(Cl)c1)CC3
logD [9]: 1.6 | GI50 [22]: 200 nM | logP [24]: 2

SMILES: CN1CCC(Oc2ccc3c4c(c(=O)oc3c2)CN(C(=O)c2ccc(C(=O)O)cc2)CC4)CC1
IC50 [1]: 390 nM | IC50 [2]: 27000 nM

SMILES: Cc1cc2c3c(c(=O)oc2cc1OCCN(C)C)CN(C(=O)c1ccc(C(=O)O)cc1)CC3
IC50 [1]: > 30000 nM | IC50 [2]: > 30000 nM

The remaining molecules from weak to strong by IC50 [1], led by results:

IC50 [1]: 360 nM | IC50 [2]: 18700 nM
SMILES: CN(C)CCCOc1ccc2c3c(c(=O)oc2c1)CN(C(=O)c1ccc(C(=O)O)cc1)CC3

IC50 [1]: 340 nM | IC50 [2]: > 30000 nM
SMILES: CN(C)CCOc1ccc2c3c(c(=O)oc2c1)CN(C(=O)c1ccc(C(=O)O)cc1)CC3

IC50 [1]: 320 nM | IC50 [2]: > 30000 nM
SMILES: CN1CCN(c2ccc3c4c(c(=O)oc3c2)CN(C(=O)c2ccc(C(=O)O)cc2)CC4)CC1

IC50 [1]: 53 nM | IC50 [2]: 8400 nM
SMILES: Cc1c(OCCN(C)C)ccc2c3c(c(=O)oc12)CN(C(=O)c1ccc2c(c1)CS(=O)(=O)N2)CC3

IC50 [1]: 49 nM | IC50 [2]: 5000 nM
SMILES: Cc1c(OCCN(C)C)ccc2c3c(c(=O)oc12)CN(C(=O)c1ccc(C(=O)O)cc1)CC3

pKa [28]: 6.9 | IC50 [1]: 38 nM | Papp [5]: 16.9 ×10⁻⁶ cm/s | IC50 [2]: 8000 nM | logP [24]: 1.7
SMILES: Cc1c(N2CCN(C)CC2)ccc2c3c(c(=O)oc12)CN(C(=O)c1ccc(NS(C)(=O)=O)c(F)c1)CC3
GI50 [22]: 2000 nM

From ChEMBL document CHEMBL4334513, “Discovery of a Potent, Selective, and Orally Available MTHFD2 Inhibitor (DS18561882) with in Vivo Antitumor Activity” (J Med Chem, 2019)
